Earlier results in patent US20180193283A1, “TRANSDERMAL THERAPEUTIC SYSTEM CONTAINING ASENAPINE” (LTS LOHMANN Therapie-Systeme AG, priority 2016, published 2018).
Read-outs that look alike come from different tables or passages of the source.

What was measured:
[1] = very common side effects

For CN1C[C@H]2c3ccccc3Oc3ccc(Cl)cc3[C@@H]2C1 (relative stereo) [asenapine, (3aRS,12bRS)-rel-5-chloro-2,3,3a,12b-tetrahydro-2-methyl-1H-dibenz[2,3:6,7]oxepino[4,5-c]pyrrole], the bioavailability (if ingested) is listed as < 2%, the terminal disposition half-life (sublingual administration, therapeutic doses) is listed as ≥ 24 h and the bioavailability (when taken sublingually) is listed as 35%. The “Somnolence and anxiety, frequency” value [1] was ≥ 10 % of the patients.
